Biological target: Human immunodeficiency virus type 1 protease (Human immunodeficiency virus 1, UniProt Q72874)
Assay: Inhibition of HIV protease

Structure (SMILES) | Ki
COc1ccc(S(=O)(=O)N(CC2CCCC2)C[C@@H](O)CN2C(=O)C3(CCCCC3)OC[C@@H]2Cc2ccccc2)cc1 | 2 nM
COc1ccc(S(=O)(=O)N(CC2CCCC2)C[C@@H](O)CN2C(=O)[C@@H](Cc3ccccc3)OC[C@@H]2Cc2ccccc2)cc1 | 35 nM
COc1ccc(S(=O)(=O)N(CC2CCCC2)C[C@@H](O)CN2C(=O)[C@@H](CCCN)OC[C@@H]2Cc2ccccc2)cc1 | 5800 nM
COc1ccc(S(=O)(=O)N(CC2CCCC2)C[C@@H](O)CN2C(=O)[C@@H](CCN)OC[C@@H]2Cc2ccccc2)cc1 | 600 nM
COc1ccc(S(=O)(=O)N(CC2CCCC2)C[C@@H](O)CN2C(=O)C3(CC3)OC[C@@H]2Cc2ccccc2)cc1 | 9 nM
COc1ccc(S(=O)(=O)N(CC2CCCC2)N2C(=O)C3(CCOCC3)OC[C@@H]2Cc2ccccc2)cc1 | 23 nM
C=CC[C@@H]1OC[C@H](Cc2ccccc2)N(C[C@H](O)CN(CC2CCCC2)S(=O)(=O)c2ccc(OC)cc2)C1=O | 270 nM
COc1ccc(S(=O)(=O)N(CC2CCCC2)C[C@@H](O)CN2C(=O)[C@@H](CCO)OC[C@@H]2Cc2ccccc2)cc1 | 30 nM
COc1ccc(S(=O)(=O)N(CC2CCCC2)C[C@@H](O)CN2C(=O)[C@@H](CCN=[N+]=[N-])OC[C@@H]2Cc2ccccc2)cc1 | 81 nM
COc1ccc(S(=O)(=O)N(CC2CCCC2)C[C@@H](O)CN2C(=O)[C@@H](CCC(N)=O)OC[C@@H]2Cc2ccccc2)cc1 | 49 nM
COc1ccc(S(=O)(=O)N(CC2CCCC2)C[C@@H](O)CN2C(=O)[C@H](Cc3cccc(C#N)c3)OC[C@@H]2Cc2ccccc2)cc1 | 490 nM
COc1ccc(S(=O)(=O)N(CC2CCCC2)C[C@@H](O)CN2C(=O)[C@@H](CCC#N)OC[C@@H]2Cc2ccccc2)cc1 | 11 nM
C=CC[C@H]1OC[C@H](Cc2ccccc2)N(C[C@H](O)CN(CC2CCCC2)S(=O)(=O)c2ccc(OC)cc2)C1=O | 2 nM
COc1ccc(S(=O)(=O)N(CC2CCCC2)C[C@@H](O)CN2C(=O)[C@H](C)OC[C@@H]2Cc2ccccc2)cc1 | 38 nM
COc1ccc(S(=O)(=O)N(CC2CCCC2)C[C@@H](O)CN2C(=O)[C@@H](Cc3cccc(C#N)c3)OC[C@@H]2Cc2ccccc2)cc1 | 55 nM

Source: ChEMBL document CHEMBL1146907, “New, potent P1/P2-morpholinone-based HIV-protease inhibitors” (Bioorg Med Chem Lett, 2006)
